{
  "source": "patent US20260262643A1",
  "about": "“HERBICIDAL BENZOXAZINES” (FMC CORPORATION, priority 2022, published 2026)",
  "key": {"corn [1]": {"tested_on": "corn", "test": "Test A postemergence", "assay_type": "in vivo, Zea mays", "conditions": "postemergence, 10 days", "in_short": "(§1)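 Plants were grown in loam and sand and treated preemergence or postemergence (one- to two-leaf stage, 2–10 cm) with compound in solvent plus surfactant. Response was scored against untreated controls after 10 greenhouse days, where 0 means no effect and 100 complete control.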"}, "ryegrass, Italian [2]": {"tested_on": "ryegrass, Italian", "test": "Test A postemergence", "assay_type": "in vivo, Lolium multiflorum", "conditions": "postemergence, 10 days", "in_short": "as §1"}, "soybean [3]": {"tested_on": "soybean", "test": "Test A postemergence", "assay_type": "in vivo, Glycine max", "conditions": "postemergence, 10 days", "in_short": "as §1"}, "blackgrass [4]": {"tested_on": "blackgrass", "test": "Test A postemergence", "assay_type": "in vivo, Alopecurus myosuroides", "conditions": "postemergence, 10 days", "in_short": "as §1"}, "wheat [5]": {"tested_on": "wheat", "test": "Test A preemergence", "assay_type": "in vivo, Triticum aestivum", "conditions": "0 to 100 scale", "in_short": "as §1"}, "ragweed [6]": {"tested_on": "ragweed", "test": "Test A preemergence", "assay_type": "in vivo, Ambrosia artemisiifolia", "conditions": "0 to 100 scale", "in_short": "as §1"}, "rice": {"tested_on": "rice", "test": "Test B flooded paddy test", "assay_type": "in vivo, Oryza sativa", "conditions": "250 g ai/ha, Flood, 13 days, 0 to 100 scale (0 no effect, 100 complete control)", "in_short": "(§2)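 Application into standing water (3 cm above soil) at the two-leaf stage; flood depth held constant. Evaluation: day 13, visual comparison with controls, 0 = no injury, 100 = complete control.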"}, "ragweed [7]": {"tested_on": "ragweed", "test": "Test A postemergence", "assay_type": "in vivo, Ambrosia artemisiifolia", "conditions": "postemergence, 10 days", "in_short": "as §1"}, "soybean [8]": {"tested_on": "soybean", "test": "Test A preemergence", "assay_type": "in vivo, Glycine max", "conditions": "0 to 100 scale", "in_short": "as §1"}, "sedge, umbrella": {"tested_on": "sedge, umbrella", "test": "Test B flooded paddy test", "assay_type": "in vivo, Cyperus difformis", "conditions": "250 g ai/ha, Flood, 13 days, 0 to 100 scale (0 no effect, 100 complete control)", "in_short": "as §2"}, "pigweed, palmer [9]": {"tested_on": "pigweed, palmer", "test": "Test A postemergence", "assay_type": "in vivo, Amaranthus palmeri", "conditions": "postemergence, 10 days", "in_short": "as §1"}, "kochia [10]": {"tested_on": "kochia", "test": "Test A postemergence", "assay_type": "in vivo, Bassia scoparia", "conditions": "postemergence, 10 days", "in_short": "as §1"}, "blackgrass [11]": {"tested_on": "blackgrass", "test": "Test A preemergence", "assay_type": "in vivo, Alopecurus myosuroides", "conditions": "0 to 100 scale", "in_short": "as §1"}, "horseweed": {"tested_on": "horseweed", "test": "Test A postemergence", "assay_type": "in vivo, Erigeron canadensis", "conditions": "postemergence, 10 days", "in_short": "as §1"}, "oat, wild [12]": {"tested_on": "oat, wild", "test": "Test A preemergence", "assay_type": "in vivo, Avena fatua", "conditions": "0 to 100 scale", "in_short": "as §1"}, "barnyardgrass [13]": {"tested_on": "barnyardgrass", "test": "Test A postemergence", "assay_type": "in vivo, Echinochloa crusgalli", "conditions": "postemergence, 10 days", "source_text": "(§3) Seeds of plant species selected from barnyardgrass (Echinochloa crusgalli), blackgrass (Alopecurus myosuroides), corn (Zea mays), foxtail, giant (giant foxtail, Setaria faberi), goosegrass (Eleusine indica), kochia (Bassia scoparia), oat, wild (wild oat, Avena fatua), pigweed, palmer (palmer amaranth, palmer pigweed, Amaranthus palmeri), Pigweed, Redroot (redroot pigweed, Amaranthus retroflexus), ragweed (common ragweed, Ambrosia artemisiifolia), ryegrass, Italian (italian ryegrass, Lolium multiflorum), soybean (Glycine max), and wheat (Triticum aestivum) were planted into a blend of loam soil and sand and treated preemergence with a directed soil spray using test chemicals formulated in a non-phytotoxic solvent mixture which included a surfactant. At the same time, plants selected from these crops and weed species and also galium (catchweed bedstraw, Galium aparine) and horseweed (Erigeron canadensis) were planted in pots containing the same blend of loam soil and sand and treated with postemergence applications of test chemicals formulated in the same manner. Plants ranged in height from 2 to 10 cm and were in the one- to two-leaf stage for the postemergence treatment. Treated plants and untreated controls were maintained in a greenhouse for 10 days, after which time all treated plants were compared to untreated controls and visually evaluated for injury. Plant response ratings, summarized in Table A, are based on a 0 to 100 scale where 0 is no effect and 100 is complete control. A dash (-) response means no test result."}, "oat, wild [14]": {"tested_on": "oat, wild", "test": "Test A postemergence", "assay_type": "in vivo, Avena fatua", "conditions": "postemergence, 10 days", "in_short": "as §1"}, "kochia [15]": {"tested_on": "kochia", "test": "Test A preemergence", "assay_type": "in vivo, Bassia scoparia", "conditions": "0 to 100 scale", "in_short": "as §1"}, "barnyardgrass [16]": {"tested_on": "barnyardgrass", "test": "Test A preemergence", "assay_type": "in vivo, Echinochloa crusgalli", "conditions": "visual injury after 10 days, 0 to 100 scale, 0 is no effect, 100 is complete control", "source_text": "as §3"}, "corn [17]": {"tested_on": "corn", "test": "Test A preemergence", "assay_type": "in vivo, Zea mays", "conditions": "0 to 100 scale", "in_short": "as §1"}, "ducksalad": {"tested_on": "ducksalad", "test": "Test B flooded paddy test", "assay_type": "in vivo, Heteranthera limosa", "conditions": "250 g ai/ha, Flood, 13 days, 0 to 100 scale (0 no effect, 100 complete control)", "in_short": "as §2"}, "pigweed, palmer [18]": {"tested_on": "pigweed, palmer", "test": "Test A preemergence", "assay_type": "in vivo, Amaranthus palmeri", "conditions": "0 to 100 scale", "in_short": "as §1"}, "ryegrass, Italian [19]": {"tested_on": "ryegrass, Italian", "test": "Test A preemergence", "assay_type": "in vivo, Lolium multiflorum", "conditions": "0 to 100 scale", "in_short": "as §1"}, "wheat [20]": {"tested_on": "wheat", "test": "Test A postemergence", "assay_type": "in vivo, Triticum aestivum", "conditions": "postemergence, 10 days", "in_short": "as §1"}, "galium": {"tested_on": "galium", "test": "Test A postemergence", "assay_type": "in vivo, Galium aparine", "conditions": "postemergence, 10 days", "in_short": "as §1"}, "barnyardgrass [21]": {"tested_on": "barnyardgrass", "test": "Test B flooded paddy test", "assay_type": "in vivo, Echinochloa crus-galli", "conditions": "250 g ai/ha, Flood, 13 days, 0 to 100 scale (0 no effect, 100 complete control)", "in_short": "as §2"}, "[22]": {"conditions": "125 g ai/ha, 0 to 100 scale, 0 no effect, 100 complete control"}, "[23]": {"conditions": "500 g ai/ha, visual injury, 0 to 100 scale (0 no effect, 100 complete control)"}, "[24]": {"conditions": "500 g ai/ha, visual injury after 10 days, 0 is no effect, 100 is complete control"}},
  "data": [
    {"smiles": "C[C@H]1CN(C(=O)c2cc(I)cc(-n3cncn3)c2)c2cccc(Cl)c2O1", "note": "[Compound 137]", "values": [
      {"measurement": "Corn plant response rating", "setting": "corn [1]; [22]", "value": 10},
      {"measurement": "Plant response rating, Corn", "setting": "corn [1]; [23]", "value": 10},
      {"measurement": "Ryegrass, Italian plant response rating", "setting": "ryegrass, Italian [2]; [22]", "value": 20},
      {"measurement": "Plant response rating, Ryegrass, Italian", "setting": "ryegrass, Italian [2]; [23]", "value": 30},
      {"measurement": "Soybean plant response rating", "setting": "soybean [3]; [22]", "value": 80},
      {"measurement": "Plant response rating, Soybean", "setting": "soybean [3]; [23]", "value": 90},
      {"measurement": "Blackgrass plant response rating", "setting": "blackgrass [4]; [22]", "value": 20},
      {"measurement": "Plant response rating, Blackgrass", "setting": "blackgrass [4]; [23]", "value": 70},
      {"measurement": "Plant response rating, Wheat", "setting": "wheat [5]; 125 g ai/ha", "value": 0},
      {"measurement": "Plant response rating, Wheat", "setting": "wheat [5]; [24]", "value": 0},
      {"measurement": "Plant response rating, Ragweed", "setting": "ragweed [6]; 125 g ai/ha", "value": 0},
      {"measurement": "Plant response rating, Ragweed", "setting": "ragweed [6]; [24]", "value": 0},
      {"measurement": "Plant response rating, Rice", "setting": "rice", "value": 0},
      {"measurement": "Ragweed plant response rating", "setting": "ragweed [7]; [22]", "value": 30},
      {"measurement": "Plant response rating, Ragweed", "setting": "ragweed [7]; [23]", "value": 30},
      {"measurement": "Plant response rating, Soybean", "setting": "soybean [8]; 125 g ai/ha", "value": 0},
      {"measurement": "Plant response rating, Soybean", "setting": "soybean [8]; [24]", "value": 0},
      {"measurement": "Plant response rating, Sedge, Umbrella", "setting": "sedge, umbrella", "value": 0},
      {"measurement": "Pigweed, Palmer plant response rating", "setting": "pigweed, palmer [9]; [22]", "value": 30},
      {"measurement": "Plant response rating, Pigweed, Palmer", "setting": "pigweed, palmer [9]; [23]", "value": 60},
      {"measurement": "Kochia plant response rating", "setting": "kochia [10]; [22]", "value": 30},
      {"measurement": "Plant response rating, Kochia", "setting": "kochia [10]; [23]", "value": 70},
      {"measurement": "Plant response rating, Blackgrass", "setting": "blackgrass [11]; 125 g ai/ha", "value": 0},
      {"measurement": "Plant response rating, Blackgrass", "setting": "blackgrass [11]; [24]", "value": 30},
      {"measurement": "Horseweed plant response rating", "setting": "horseweed; [22]", "value": 0},
      {"measurement": "Plant response rating, Horseweed", "setting": "horseweed; [23]", "value": 30},
      {"measurement": "Plant response rating, Oat, Wild", "setting": "oat, wild [12]; 125 g ai/ha", "value": 0},
      {"measurement": "Plant response rating, Oat, Wild", "setting": "oat, wild [12]; [24]", "value": 0},
      {"measurement": "Barnyardgrass plant response rating", "setting": "barnyardgrass [13]; [22]", "value": 10},
      {"measurement": "Plant response rating, Barnyardgrass", "setting": "barnyardgrass [13]; [23]", "value": 10},
      {"measurement": "Oat, Wild plant response rating", "setting": "oat, wild [14]; [22]", "value": 0},
      {"measurement": "Plant response rating, Oat, Wild", "setting": "oat, wild [14]; [23]", "value": 0},
      {"measurement": "Plant response rating, Kochia", "setting": "kochia [15]; 125 g ai/ha", "value": 0},
      {"measurement": "Plant response rating, Kochia", "setting": "kochia [15]; [24]", "value": 0},
      {"measurement": "Plant response rating, Barnyardgrass", "setting": "barnyardgrass [16]; 125 g ai/ha", "value": 0},
      {"measurement": "Plant response rating, Barnyardgrass", "setting": "barnyardgrass [16]; 500 g ai/ha", "value": 40},
      {"measurement": "Plant response rating, Corn", "setting": "corn [17]; 125 g ai/ha", "value": 0},
      {"measurement": "Plant response rating, Corn", "setting": "corn [17]; [24]", "value": 50},
      {"measurement": "Plant response rating, Ducksalad", "setting": "ducksalad", "value": 0},
      {"measurement": "Plant response rating, Pigweed, Palmer", "setting": "pigweed, palmer [18]; 125 g ai/ha", "value": 10},
      {"measurement": "Plant response rating, Pigweed, Palmer", "setting": "pigweed, palmer [18]; [24]", "value": 80},
      {"measurement": "Plant response rating, Ryegrass, Italian", "setting": "ryegrass, Italian [19]; 125 g ai/ha", "value": 70},
      {"measurement": "Plant response rating, Ryegrass, Italian", "setting": "ryegrass, Italian [19]; [24]", "value": 80},
      {"measurement": "Wheat plant response rating", "setting": "wheat [20]; [22]", "value": 10},
      {"measurement": "Plant response rating, Wheat", "setting": "wheat [20]; [23]", "value": 10},
      {"measurement": "Galium plant response rating", "setting": "galium; [22]", "value": 80},
      {"measurement": "Plant response rating, Galium", "setting": "galium; [23]", "value": 90},
      {"measurement": "Plant response rating, Barnyardgrass", "setting": "barnyardgrass [21]", "value": 0}
    ]}
  ]
}
